Data from the NIST ThermoML archive (doi:10.1021/acs.jced.9b00560).
Numbers after ± are expanded uncertainties.

Experiments:
[1] = Molar enthalpy of transition or fusion; conditions: Crystal; DSC
[2] = Crystal; DSC

Molar enthalpy of transition or fusion [1]: 4.57 ± 0.215 kcal/mol
Triple point temperature [2]: 357.24 ± 1.2 K
Compound: O=C1C=CC(=O)N1c1ccccc1Br [1-(2-bromophenyl)-pyrrole-2,5-dione]
